In patent US9695155B2, “Herbicidal substituted pyrimidinyloxy benzene compounds” (E. I. DU PONT DE NEMOURS AND COMPANY, priority 2013, dated 2017):

How the values were obtained:
waterhemp = test: Test C preemergence; type: in vivo, Amaranthus rudis
Summary of the method: (§1)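 Whole-plant greenhouse test with surfactant-containing solvent formulation, applied preemergence to sown loam–sand pots or postemergence to 2–18 cm plants. Scored by eye 13 to 15 days on, 0–100 scale.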

wheat, winter = test: Test C preemergence; type: in vivo, Triticum aestivum
Summary of the method: as §1

kochia [1] = test: Test A postemergence; type: in vivo, Kochia scoparia
Summary of the method: (§2)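 Visual 0–100 rating (100 = complete control) taken about 10 d post-treatment relative to untreated checks. Preemergence: directed soil spray on sown loam/sand pots. Postemergence: seedlings 2–10 cm, 1–2 leaf. Non-phytotoxic solvent formulation with surfactant.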

Italian ryegrass = test: Test C postemergence; type: in vivo, Lolium multiflorum; conditions: for Ryegrass, Italian plant response rating: 31 g ai/ha
Summary of the method: as §1

galium = test: Test C preemergence; type: in vivo, Galium aparine
Summary of the method: as §1

corn = test: Test C postemergence; type: in vivo, Zea mays
Summary of the method: as §1

blackgrass = test: Test A postemergence; type: in vivo, Alopecurus myosuroides
Summary of the method: as §2

giant foxtail = test: Test A postemergence; type: in vivo, Setaria faberii
Summary of the method: as §2

Heteranthera limosa = test: Test B flooded paddy test; type: in vivo; conditions: Flood, 250 g ai/ha, 0 to 100 scale where 0 is no effect and 100 is complete control
Summary of the method: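 Flooded to 3 cm at the 2-leaf stage, pots received compound through the paddy water and were kept at that depth under greenhouse conditions. After 13–15 days, effect was rated by eye relative to controls, 0 = none and 100 = complete control.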

wheat = test: Test A postemergence; type: in vivo, Triticum aestivum
Summary of the method: as §2

pigweed = test: Test A preemergence; type: in vivo, Amaranthus retroflexus; conditions: for Pigweed plant response rating (0 to 100 scale): 125 g ai/ha; for Pigweed plant response rating: 500 g ai/ha
Summary of the method: as §2

johnsongrass = test: Test C preemergence; type: in vivo, Sorghum halepense
Summary of the method: as §1

kochia [2] = test: Test A preemergence; type: in vivo, Kochia scoparia; conditions: for Kochia plant response rating (0 to 100 scale): 125 g ai/ha; for Kochia plant response rating: 500 g ai/ha
Summary of the method: as §2

[3] = 16 g ai/ha, preemergence, scale 0 to 100 (0 no effect, 100 complete control)
[4] = 125 g ai/ha, preemergence, scale 0 (no effect) to 100 (complete control)
[5] = Preemergence, 62 g ai/ha, scale 0 to 100, 0 no effect, 100 complete control
[6] = 125 g ai/ha, 0 to 100 scale, 0 no effect, 100 complete control
[7] = 500 g ai/ha, 0 to 100 scale where 0 is no effect and 100 is complete control
[8] = 16 g ai/ha, postemergence, 0 is no effect, 100 is complete control
[9] = postemergence, visual rating, scale 0 to 100 (0 no effect, 100 complete control), 13 to 15 days
[10] = 125 g ai/ha, postemergence, visual rating, scale 0 to 100 (0 no effect, 100 complete control)
[11] = Postemergence, 62 g ai/ha, scale 0 to 100 (0 no effect, 100 complete control), 13 to 15 days
[12] = 31 g ai/ha, postemergence, visual rating, scale 0 to 100 (0 no effect, 100 complete control), 13 to 15 days
[13] = 0 to 100 scale where 0 is no effect and 100 is complete control
[14] = 31 g ai/ha, 0 to 100 scale, 0 no effect, 100 complete control

N#Cc1cn(-c2c(C#N)cccc2Oc2ncc(Cl)cn2)nn1 [Compound 273]
Waterhemp plant response rating (waterhemp; [3]): 45 | Waterhemp plant response rating (waterhemp; [4]): 100 | Plant response rating, Waterhemp (waterhemp; [5]): 98 | Wheat plant response rating (wheat, winter; [3]): 0 | Wheat plant response rating (wheat, winter; [4]): 5 | Plant response rating, Wheat (wheat, winter; [5]): 0 | Plant response rating, Kochia (kochia [1]; [6]): 70 | Plant response rating, Kochia (kochia [1]; [7]): 100 | Plant response rating (0 to 100), Ryegrass, Italian (Italian ryegrass; [8]): 5 | Ryegrass, Italian plant response rating (Italian ryegrass; [9]): 5 | Plant response rating, Ryegrass, Italian (Italian ryegrass; [10]): 10 | Plant response rating, Ryegrass, Italian (Italian ryegrass; [11]): 5 | Galium plant response rating (galium; [3]): 0 | Galium plant response rating (galium; [4]): 98 | Plant response rating, Galium (galium; [5]): 95 | Plant response rating (0 to 100), Corn (corn; [8]): 5 | Corn plant response rating (corn; [12]): 5 | Plant response rating, Corn (corn; [10]): 5 | Plant response rating, Corn (corn; [11]): 5 | Plant response rating, Blackgrass (blackgrass; [6]): 60 | Plant response rating, Blackgrass (blackgrass; [7]): 80 | Plant response rating, Foxtail, Giant (giant foxtail; [6]): 70 | Plant response rating, Foxtail, Giant (giant foxtail; [7]): 90 | Plant response rating, Ducksalad (Heteranthera limosa): 75 | Plant response rating, Wheat (wheat; [6]): 10 | Plant response rating, Wheat (wheat; [7]): 50 | Pigweed plant response rating (0 to 100 scale) (pigweed): 100 | Pigweed plant response rating (pigweed; [13]): 100 | Johnsongrass plant response rating (johnsongrass; [3]): 0 | Johnsongrass plant response rating (johnsongrass; [4]): 80 | Plant response rating, Johnsongrass (johnsongrass; [5]): 55 | Kochia plant response rating (0 to 100 scale) (kochia [2]): 100 | Kochia plant response rating (kochia [2]; [13]): 100

N#Cc1cnn(-c2c(Oc3ncc(F)cn3)cccc2C(F)F)c1 [Compound 240]
Waterhemp plant response rating (waterhemp; [3]): 50 | Waterhemp plant response rating (waterhemp; [4]): 100 | Plant response rating, Waterhemp (waterhemp; [5]): 100 | Wheat plant response rating (wheat, winter; [3]): 0 | Wheat plant response rating (wheat, winter; [4]): 5 | Plant response rating, Wheat (wheat, winter; [5]): 0 | Plant response rating, Kochia (kochia [1]; [6]): 100 | Plant response rating, Kochia (kochia [1]; [7]): 60 | Plant response rating (0 to 100), Ryegrass, Italian (Italian ryegrass; [8]): 0 | Ryegrass, Italian plant response rating (Italian ryegrass; [9]): 0 | Plant response rating, Ryegrass, Italian (Italian ryegrass; [10]): 0 | Plant response rating, Ryegrass, Italian (Italian ryegrass; [11]): 0 | Galium plant response rating (galium; [3]): 5 | Galium plant response rating (galium; [4]): 100 | Plant response rating, Galium (galium; [5]): 100 | Plant response rating (0 to 100), Corn (corn; [8]): 0 | Corn plant response rating (corn; [12]): 5 | Plant response rating, Corn (corn; [10]): 15 | Plant response rating, Corn (corn; [11]): 5 | Plant response rating, Blackgrass (blackgrass; [6]): 90 | Plant response rating, Blackgrass (blackgrass; [7]): 100 | Plant response rating, Foxtail, Giant (giant foxtail; [6]): 90 | Plant response rating, Foxtail, Giant (giant foxtail; [7]): 100 | Plant response rating, Ducksalad (Heteranthera limosa): 50 | Plant response rating, Wheat (wheat; [6]): 30 | Plant response rating, Wheat (wheat; [7]): 90 | Pigweed plant response rating (0 to 100 scale) (pigweed): 100 | Pigweed plant response rating (pigweed; [13]): 100 | Johnsongrass plant response rating (johnsongrass; [3]): 5 | Johnsongrass plant response rating (johnsongrass; [4]): 45 | Plant response rating, Johnsongrass (johnsongrass; [5]): 10 | Kochia plant response rating (0 to 100 scale) (kochia [2]): 100 | Kochia plant response rating (kochia [2]; [13]): 100

N#Cc1cccc(Oc2ncc(Cl)cn2)c1-n1cc(C(F)F)cn1 [Compound 253, 3-(5-chloropyrimidin-2-yl)oxy-2-[4-(difluoromethyl)-1H-pyrazol-1-yl]benzonitrile]
pest or weed control at 16 g/ha (waterhemp; Amaranthus tuberculatus, pre-emergence, 16 g ai/ha, preemergence, scale 0 to 100 (0 no effect, 100 complete control), read-out: Waterhemp plant response rating): 100% | pest or weed control at 125 g/ha (waterhemp; Amaranthus tuberculatus, pre-emergence, 125 g ai/ha, preemergence, scale 0 (no effect) to 100 (complete control), read-out: Waterhemp plant response rating): 100% | pest or weed control at 62 g/ha (waterhemp; Amaranthus tuberculatus, pre-emergence, Preemergence, 62 g ai/ha, scale 0 to 100, 0 no effect, 100 complete control, read-out: Plant response rating, Waterhemp): 100% | plant injury at 16 g/ha (wheat, winter; Triticum aestivum, pre-emergence, 16 g ai/ha, preemergence, scale 0 to 100 (0 no effect, 100 complete control), read-out: Wheat plant response rating): 0% | plant injury at 125 g/ha (wheat, winter; Triticum aestivum, pre-emergence, 125 g ai/ha, preemergence, scale 0 (no effect) to 100 (complete control), read-out: Wheat plant response rating): 60% | plant injury at 62 g/ha (wheat, winter; Triticum aestivum, pre-emergence, Preemergence, 62 g ai/ha, scale 0 to 100, 0 no effect, 100 complete control, read-out: Plant response rating, Wheat): 0% | Plant response rating, Kochia (kochia [1]; [14]): 100 | Plant response rating, Kochia (kochia [1]; [6]): 100 | Ryegrass, Italian plant response rating (Italian ryegrass; [9]): 0 | pest or weed control at 16 g/ha (Italian ryegrass; Lolium multiflorum, post-emergence, 16 g ai/ha, postemergence, 0 is no effect, 100 is complete control, read-out: Plant response rating (0 to 100), Ryegrass, Italian): 0% | pest or weed control at 125 g/ha (Italian ryegrass; Lolium multiflorum, post-emergence, 125 g ai/ha, postemergence, visual rating, scale 0 to 100 (0 no effect, 100 complete control), read-out: Plant response rating, Ryegrass, Italian): 0% | pest or weed control at 62 g/ha (Italian ryegrass; Lolium multiflorum, post-emergence, Postemergence, 62 g ai/ha, scale 0 to 100 (0 no effect, 100 complete control), 13 to 15 days, read-out: Plant response rating, Ryegrass, Italian): 0% | pest or weed control at 16 g/ha (galium; Galium, pre-emergence, 16 g ai/ha, preemergence, scale 0 to 100 (0 no effect, 100 complete control), read-out: Galium plant response rating): 70% | pest or weed control at 125 g/ha (galium; Galium, pre-emergence, 125 g ai/ha, preemergence, scale 0 (no effect) to 100 (complete control), read-out: Galium plant response rating): 95% | pest or weed control at 62 g/ha (galium; Galium, pre-emergence, Preemergence, 62 g ai/ha, scale 0 to 100, 0 no effect, 100 complete control, read-out: Plant response rating, Galium): 100% | plant injury at 16 g/ha (corn; Zea mays, post-emergence, 16 g ai/ha, postemergence, 0 is no effect, 100 is complete control, read-out: Plant response rating (0 to 100), Corn): 5% | plant injury at 31 g/ha (corn; Zea mays, post-emergence, 31 g ai/ha, postemergence, visual rating, scale 0 to 100 (0 no effect, 100 complete control), 13 to 15 days, read-out: Corn plant response rating): 5% | Corn plant response rating (crop injury, 0 = no effect, 100 = complete kill) at 125 g/ha (corn; Zea mays, post-emergence, 125 g ai/ha, postemergence, visual rating, scale 0 to 100 (0 no effect, 100 complete control)): 25% | Corn plant response rating (crop injury, 0 = no effect, 100 = complete kill) at 62 g/ha (corn; Zea mays, post-emergence, Postemergence, 62 g ai/ha, scale 0 to 100 (0 no effect, 100 complete control), 13 to 15 days): 5% | Plant response rating, Blackgrass (blackgrass; [14]): 20 | Plant response rating, Blackgrass (blackgrass; [6]): 80 | pest or weed control at 31 g/ha (giant foxtail; Setaria faberi, post-emergence, 240 h, 31 g ai/ha, 0 to 100 scale, 0 no effect, 100 complete control, read-out: Plant response rating, Foxtail, Giant): 20% | pest or weed control at 125 g/ha (giant foxtail; Setaria faberi, post-emergence, 240 h, 125 g ai/ha, 0 to 100 scale, 0 no effect, 100 complete control, read-out: Plant response rating, Foxtail, Giant): 100% | pest or weed control at 250 g/ha (Heteranthera limosa; Heteranthera limosa, read-out: Plant response rating, Ducksalad): 75% | plant injury at 31 g/ha (wheat; Triticum aestivum, post-emergence, 240 h, 31 g ai/ha, 0 to 100 scale, 0 no effect, 100 complete control, read-out: Plant response rating, Wheat): 20% | plant injury at 125 g/ha (wheat; Triticum aestivum, post-emergence, 240 h, 125 g ai/ha, 0 to 100 scale, 0 no effect, 100 complete control, read-out: Plant response rating, Wheat): 30% | Pigweed plant response rating (0 to 100 scale) (pigweed): 100 | pest or weed control at 31 g/ha (pigweed; Amaranthus retroflexus, pre-emergence, 240 h, 31 g ai/ha, 0 to 100 scale where 0 is no effect and 100 is complete control, visual, approximately 10 days, read-out: Plant response rating, Pigweed): 100% | pest or weed control at 16 g/ha (johnsongrass; Sorghum halepense, pre-emergence, 16 g ai/ha, preemergence, scale 0 to 100 (0 no effect, 100 complete control), read-out: Johnsongrass plant response rating): 15% | pest or weed control at 125 g/ha (johnsongrass; Sorghum halepense, pre-emergence, 125 g ai/ha, preemergence, scale 0 (no effect) to 100 (complete control), read-out: Johnsongrass plant response rating): 100% | pest or weed control at 62 g/ha (johnsongrass; Sorghum halepense, pre-emergence, Preemergence, 62 g ai/ha, scale 0 to 100, 0 no effect, 100 complete control, read-out: Plant response rating, Johnsongrass): 60% | Plant response rating, Kochia (kochia [2]; 31 g ai/ha, 0 to 100 scale where 0 is no effect and 100 is complete control, visual, approximately 10 days): 90 | Kochia plant response rating (0 to 100 scale) (kochia [2]): 100
